Results: patent publication EP3006939A1, “Histidine-rich Glycoprotein as a marker for hepatic Farnesoid X receptor activation” (Gilead Sciences, Inc., priority 2014, dated 2016)
“And” between values parts separate entries of the source, which are not always exact repeats. Identical values can stand only once. “Also recorded” adds a separate entry of the source. Like-named read-outs stand apart in the source and are kept apart here.

Key:
[1] = test system: Huh7 human hepatoma cells; assay: Induction of HRG and SHP mRNAs, RT-qPCR normalized to TBP; type: cell-based; conditions: Huh-7, 16 hours
Method: (§1) Huh7 (# JCRB0403) cells were obtained from the Health Science Research Resources Bank, Osaka, Japan. Cells were cultivated in MEM containing 8.6% FCS supplemented with 2 mM L-Alanyl-L-Glutamine (all purchased via Sigma-Aldrich, Munich, Germany) in presence of 1 µM of PX20606 or DMSO as a vehicle for 16 hours. Total RNA from cells grown in 96 well tissue plates (Huh7, HepaRG and 3D human liver microtisues) were isolated following the instructions of the RNeasy 96 RNA isolation kit (Qiagen, Hilde, Germany) and cDNA's were synthesized from 1/25th of the isolated total RNA from one 96 well using Superscript II reverse Transcriptase (Life Technologies, Carlsbad, U.S.A.). Quantitative PCR was performed and analyzed using Absolute QPCR Rox Mix (Life Technologies, Carlsbad, U.S.A.) and a 384-format ABI 7900HT Sequence Detection System (Applied Biosystems, Darmstadt, Germany). Gene expression was expressed in arbitrary units and normalized relative to the housekeeping gene TATA box binding protein (TBP). The TBP normalized mRNA levels were plotted for HRG and SHP in Figure 1 (number of replicates n = 6). Table 2: Primer and probe sequences.

human FXR = molecular target: T1, human FXR (Homo sapiens, UniProt Q96RI1); assay: Luciferase reporter assay with human HRG promoter fragment in Huh7 cells co-transfected with an FXR expression plasmid; type: cell-based; conditions: FXR exogenously expressed, 1 µM, 16 h
T1 sequence (Q96RI1 1-486): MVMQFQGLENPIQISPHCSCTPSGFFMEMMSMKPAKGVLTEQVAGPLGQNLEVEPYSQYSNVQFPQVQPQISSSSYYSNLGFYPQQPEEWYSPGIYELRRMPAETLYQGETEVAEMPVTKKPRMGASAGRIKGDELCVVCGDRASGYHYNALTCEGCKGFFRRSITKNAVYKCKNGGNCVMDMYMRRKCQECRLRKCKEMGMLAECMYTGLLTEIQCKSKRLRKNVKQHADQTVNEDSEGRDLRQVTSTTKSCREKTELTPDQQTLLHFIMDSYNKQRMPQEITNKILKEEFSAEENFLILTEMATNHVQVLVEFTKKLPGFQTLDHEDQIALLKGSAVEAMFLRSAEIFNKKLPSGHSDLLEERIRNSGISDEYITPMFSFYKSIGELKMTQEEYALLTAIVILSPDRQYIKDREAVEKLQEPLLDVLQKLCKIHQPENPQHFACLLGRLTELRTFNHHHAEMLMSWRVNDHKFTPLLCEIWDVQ
Source text: A human HRG promoter fragment was cloned as a Xhol-Hindlll fragment (from position -1,973 till +8 with respect to the mRNA starting nucleotide at +1) using the oligonucleotides […] (SEQ ID No. 10) and […] (SEQ ID No. 11) into the Xhol and Hindlll sites of pGL2basic (Promega, Madison, U.S.A.). The IR1 and ER2 sites were mutated using the primers of Table 3. Table 3: Primer sequences
The reporter plasmids pGL2-FXR-RE (FXR-RE), pGL2-PHRG (wt), pGL2-PHRG-IR1mut (IR1mut) and pGL2-PHRG-ER2mut (ER2mut) and pGL2-PHRG-IR1/ER2 (DM) (each 50 ng/well), were co-transfected with pTRex-Dest30-hFXR (20 ng/well) and pCMV-RL (5 ng/well, constitutively expressing the Renilla luciferase under control of a CMV promotor as an internal control) into Huh7 cells using lipofection with Polyethylenimine and cultivated in presence or absence of 1 µM of the FXR agonist PX20606 or DMSO as a vehicle control for 16 h followed by cell lysis and determination of luciferase activities as described in U. Deuschle et al., PLoS One 2012, 7, e43044.

[2] = test system: human primary Upcyte® Hepatocytes; assay: Induction of HRG transcription, RT-qPCR normalized to TBP; type: cell-based; conditions: Hepatocyte, 24 hours
Method: as §1, with “Table 2: Primer and probe sequences.” left out
Upcyte® hepatocytes (Cat# UH0-000-KA00 donor 10-03) derived from primary hepatocytes of a donor were cultivated in 96 well plates in high performance medium (Medicyte, Heidel-berg, Germany). Isolation of total RNA followed by quantitative qPCR was done as described in Example 2.

HepG2-FXR5 cells [3] = assay: as above; type: cell-based; conditions: Homo sapiens, 24 hours
Method: as §1, with “The TBP normalized mRNA levels were plotted for HRG and SHP in Figure 1 (number of replicates n = 6). Table 2: Primer and probe sequences.” left out
HepG2-FXR5 cells (described in U. Deuschle et al., PLoS One. 2012, 7, e43044) were cultivated in 96 well plates in RPMI medium supplemented with 8.6% FCS and supplemented with 2 mM L-Alanyl-L-Glutamine (all purchased via Sigma-Aldrich, Munich, Germany). Isolation of total RNA followed by quantitative qPCR was done as described in Example 2.

HepG2-FXR5 cells [4] = assay: Detection of secreted HRG in cell supernatant by Ni-NTA agarose collection and Western blot; type: cell-based, human; conditions: 1 µM, 48 hours, vs DMSO, Western blot
Method: HepG2-FXR5 cells (described in U. Deuschle et al., PLoS One. 2012, 7, e43044) were cultivated in T75 flasks in RPMI medium supplemented with 0,2% BSA, 2 mM L-Alanyl-L-Glutamine (Sigma-Aldrich, Munich, Germany) and 1x Insulin-Transferrin-Selenium (#51500-056, Life Technolgies, Carlsbad, USA). Each 10 ml supernatant from cells grown in presence of 1 µM PX20606 or DMSO as vehicle for 48 hours were mixed with 100 µL Ni-NTA agarose slurry (#1018240, Qiagen, Hilden, Germany) for 1 h, the slurry was collected by centrifugation and after 3 washes with 10 mL 1xPBS resuspended in 100 µL SDS sample buffer. Western blot was performed (as described in U. Deuschle et al., PLoS One 2012, 7, e43044) and HRG detected using polyclonal mouse-anti human HRG antibodies (ab67807, Abcam, Cambridge, UK).

HepaRG cells = assay: Microarray experiment, genome wide mRNA array analysis; type: cell-based, human; conditions: 1 µM, 24 hours, vs DMSO vehicle; for Fold changes to "DMSO", TBP mRNA: control gene
Method: HepaRG cells were obtained plated from Biopredic International (# HPR203-MW96, Rennes, France) and cultivated in 6-well plates using the media and protocol supplied by the manufacturer. Cells were cultivated in induction medium (Biopredic International) with 1 µM of PX20350 (E. Hambruch et al., J. Pharmacol. Exp. Ther. 2012, 343, 556) diluted from a 20 mM stock solution in DMSO or DMSO as a vehicle control for 24 hours. Total RNA was isolated following the instructions of the RNeasy 96 RNA isolation kit (Qiagen, Hilde, Germany) and 200 ng total RNA used for a genome wide mRNA array analysis done as a fee for service at the Genomics & Pro-teomics Core Facility of the German Research Facility using the human Sentrix-6 V3 (4213572043) array from Illumina and standard experimental kits and protocols supplied by the manufacturer (Illumina Inc. San Diego U.S.A.).
This upregulation was similar to that (2.7 fold) of the known direct FXR target gene NR0B2 (SHP, Small heterodimer partner). In comparison, TBP mRNA (TATA box binding protein) was not changed in relative abundance (Table 1).

[5] = read-out: HRG mRNA upregulated compared to DMSO
[6] = read-out: known direct FXR target gene (SHP mRNA) upregulated compared to DMSO

Compound | fold induction at 1 µM [1, 5] | fold induction at 1 µM [1, 6] | activity of HRG promoter with mutated ER-2 site, luciferase reporter (human FXR) | activity of HRG promoter with mutated IR-1 site, luciferase reporter (human FXR) | activity of HRG promoter (wt, -1973 to +8) luciferase reporter (human FXR; vs DMSO) | fold induction at 1 µM [2, 5] | fold induction at 1 µM [2, 6] | fold induction at 1 µM (HepG2-FXR5 cells [3]; [5]) | fold induction at 1 µM (HepG2-FXR5 cells [3]; [6]) | amount of secreted HRG (HepG2-FXR5 cells [4]) | Fold changes to "DMSO", NR0B2 (SHP) mRNA (HepaRG cells) | Fold changes to "DMSO", HRG mRNA (HepaRG cells; 1440 min) | Fold changes to "DMSO", TBP mRNA (HepaRG cells) | Fold changes to "DMSO", TBP mRNA (HepaRG cells; 1440 min)
O=C(O)c1ccc(C2CC2c2ccc(OCc3c(-c4c(Cl)cccc4Cl)noc3C3CC3)cc2Cl)cc1 (centres unmarked) [PX20606, 4-(2-(2-chloro-4-((5-cyclopropyl-3-(2,6-dichlorophenyl)isoxazol-4-yl)methoxy)phenyl)cyclopropyl)benzoic acid] | ~3.5 | ~4 | loss of FXR/FXR agonist responsitivity | reduce the activity | active | ~11 | ~10 | ~20 | ~6 | increased; also recorded: up-regulated |  |  |  | 
CN(Cc1ccc(C(=O)O)cc1)c1ccc(OCc2c(-c3c(Cl)cccc3Cl)noc2C2CC2)nc1C(F)(F)F [PX20350] |  |  |  |  |  |  |  |  |  |  | 2.7 fold | 2 fold and 2.0 fold | not changed | 1.0
